The text below walks through data of patent publication US9040529B2 (Vichem Chemie Kutató Kft., priority 2009, dated 2015).

Structures are written as SMILES. Some results are limits rather than exact numbers.

T1 sequence (P50750 whole entry): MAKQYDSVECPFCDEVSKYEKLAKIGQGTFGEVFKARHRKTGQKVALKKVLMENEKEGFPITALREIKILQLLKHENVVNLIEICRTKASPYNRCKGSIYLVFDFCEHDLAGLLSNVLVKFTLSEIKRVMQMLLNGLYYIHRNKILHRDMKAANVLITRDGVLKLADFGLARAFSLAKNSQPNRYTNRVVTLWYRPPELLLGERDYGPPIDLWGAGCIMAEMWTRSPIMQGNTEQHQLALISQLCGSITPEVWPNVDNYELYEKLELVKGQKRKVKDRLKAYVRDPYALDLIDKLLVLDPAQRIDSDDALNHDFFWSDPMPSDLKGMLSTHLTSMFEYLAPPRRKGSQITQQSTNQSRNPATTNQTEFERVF
T1 sequence (O60563 whole entry partner): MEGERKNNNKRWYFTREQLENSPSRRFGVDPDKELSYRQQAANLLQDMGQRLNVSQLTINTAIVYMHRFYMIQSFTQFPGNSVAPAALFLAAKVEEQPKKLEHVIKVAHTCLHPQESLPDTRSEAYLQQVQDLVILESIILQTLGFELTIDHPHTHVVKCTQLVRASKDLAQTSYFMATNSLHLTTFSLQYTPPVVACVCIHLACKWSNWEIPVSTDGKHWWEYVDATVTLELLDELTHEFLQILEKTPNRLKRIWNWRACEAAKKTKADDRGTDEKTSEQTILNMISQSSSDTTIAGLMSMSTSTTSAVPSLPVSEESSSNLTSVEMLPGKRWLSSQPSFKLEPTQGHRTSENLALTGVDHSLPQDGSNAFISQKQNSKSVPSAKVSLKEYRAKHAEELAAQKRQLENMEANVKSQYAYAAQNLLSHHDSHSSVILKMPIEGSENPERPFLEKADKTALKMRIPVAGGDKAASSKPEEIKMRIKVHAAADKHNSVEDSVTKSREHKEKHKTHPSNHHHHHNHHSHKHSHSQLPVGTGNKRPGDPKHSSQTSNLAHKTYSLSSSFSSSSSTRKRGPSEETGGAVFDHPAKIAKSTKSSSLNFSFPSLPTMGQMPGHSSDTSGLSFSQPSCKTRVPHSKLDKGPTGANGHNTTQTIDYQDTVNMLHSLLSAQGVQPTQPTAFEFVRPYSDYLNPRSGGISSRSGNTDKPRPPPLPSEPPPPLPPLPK

The first experiment concerns the target T1, human CDK9/CyclinT kinase complex (Homo sapiens, UniProt P50750).
T1 construct: purchased Proqinase 0371-0345-1
Kind of experiment: In vitro CDK9/CyclinT assay (IMAP fluorescence polarization kinase assay).
Details: not given
The class given is biochemical. As for the experimental part: In Vitro CDK9/CyclinT Assay
The activity of the compounds described in the present invention can be determined by the following kinase assay, which measures the phosphorylation of a fluorescently-labeled peptide by human CDK9/CyclinT kinase complex by fluorescent polarization using a commercially available IMAP Screening Express Assay Kit (Molecular devices).
CDK9 kinase assays were performed in low protein binding 384-well plates (Corning 3676). Test compounds were diluted in 100% DMSO to 5 mM stock concentration, then further dilutions were made in H2O or 100% DMSO to desirable concentrations.
Each reaction consisted of 5 nM enzyme: CDK9/CyclinT (Proqinase cat#0371-0345-1), 400 nM TAMRA-Rbtide (synthetic 15-mer peptide derived from human retinoblastoma tumor suppressor protein labelled with TAMRA dye, Genecust Europe), 12 μM ATP (=Kmapp, Sigma-Aldrich) and kinase buffer: 20 mM MOPS pH 7 (Sigma-Aldrich), 1 mM DTT (Sigma-Aldrich), 10 mM MgCl2 (Sigma-Aldrich), 0.01% Tween 20 (Sigma-Aldrich).
For each reaction, 4 or 6 μl containing TAMRA-Rbtide, ATP and kianse buffer were combined with 2 μl diluted compound in H2O or 0.028 μl compound in 100% DMSO. The kinase reaction was started by the addition of 2 μl diluted enzyme. The reaction was allowed to run for 1 hours at room temperature. The reaction was stopped by adding 15 μl IMAP beads (1:400 beads in progressive (100% buffer A) 1× buffer). After an additional 1 hours, fluorescent polarization (Ex: 550-10 nm, Em: 590-10 nm, Dich: 561 nm) was measured using an Analyst GT (Molecular devices).
In general terms: Fluorescence polarisation rises when a labelled molecule tumbles more slowly, as on binding a larger partner.
In the case of `COc1ccccc1-c1cc(Nc2cccc(CNS(C)(=O)=O)c2)ncn1` [Example 6, N-{3-[6-(2-Methoxy-phenyl)-pyrimidin-4-ylamino]-benzyl}-methanesulfonamide], the CDK9 inhibitory effect result was “nanomolar or low nanomolar range”.

On to `CCCS(=O)(=O)NCc1cccc(Nc2cc(-c3ccccc3OC)ncn2)c1` [Example 71, Propane-1-sulfonic acid 3-[6-(2-methoxy-phenyl)-pyrimidin-4-ylamino]-benzylamide], for which the CDK9 inhibitory effect result was “nanomolar or low nanomolar range”.

Regarding `CCOc1ccccc1-c1cc(Nc2ccc(CNS(C)(=O)=O)cc2)ncn1` [Example 37, N-{4-[6-(2-Ethoxy-phenyl)-pyrimidin-4-ylamino]-benzyl}-methanesulfonamide], the CDK9 inhibitory effect entry is listed as “nanomolar or low nanomolar range”.

The experiment is the same for the next values; noted with them: 5 nM CDK9/CyclinT, 400 nM TAMRA-Rbtide, 12 μM ATP, 1 hour at room temperature; read-out: CDK9 inhibitory range.
Consider `COc1ccccc1-c1cc(Nc2cccc(CNS(=O)(=O)c3ccc(F)cc3)c2)ncn1` [Example 72, 4-Fluoro-N-{3-[6-(2-methoxy-phenyl)-pyrimidin-4-ylamino]-benzyl}-benzenesulfonamide], for which the IC50 was < 1000 nM.

Take `COc1ccccc1-c1cc(Nc2cccc(CNc3nc4ccccc4[nH]3)c2)ncn1` [Example 60, (1H-Benzoimidazol-2-yl)-{3-[6-(2-methoxy-phenyl)-pyrimidin-4-ylamino]-benzyl}-amine]: the IC50 is < 1000 nM.

Turning to `Clc1cc(Nc2cccc(Cn3ccc4ccccc43)c2)ncn1` [Example 90, (6-Chloro-pyrimidin-4-yl)-(3-indol-1-ylmethyl-phenyl)-amine], the IC50 was > 10000 nM.

Turning to `CS(=O)(=O)NCc1cccc(Nc2cc(-c3ccccc3OC(F)(F)F)ncn2)c1` [Example 15, N-{3-[6-(2-Trifluoromethoxy-phenyl)-pyrimidin-4-ylamino]-benzyl}-methanesulfonamide], the IC50 was < 10000 nM.

As for `CCc1ccccc1-c1cc(Nc2cccc(CNS(C)(=O)=O)c2)ncn1` [Example 12, N-{3-[6-(2-Ethyl-phenyl)-pyrimidin-4-ylamino]-benzyl}-methanesulfonamide], the IC50 was < 1000 nM.

As for `CS(=O)(=O)NCc1ccc(Nc2cc(-c3ccc(O)cc3)ncn2)cc1` [Example 76, N-{4-[6-(4-Hydroxy-phenyl)-pyrimidin-4-ylamino]-benzyl}-methanesulfonamide], the IC50 was < 1000 nM.

In the case of `C=C(c1ccccc1)c1cc(Nc2cccc(CNS(C)(=O)=O)c2)ncn1` [Example 3], the IC50 was < 10000 nM.

In the case of `C[S+]([O-])c1ccccc1-c1cc(Nc2cccc(CNS(C)(=O)=O)c2)ncn1` (stereo not drawn) [Example 29, N-{3-[6-(2-Methanesulfinyl-phenyl)-pyrimidin-4-ylamino]-benzyl}-methanesulfonamide], the IC50 is < 10000 nM.

As for `COc1ccccc1-c1cc(Nc2cccc(CNS(=O)(=O)Cc3ccccc3)c2)ncn1` [Example 74, N-{3-[6-(2-Methoxy-phenyl)-pyrimidin-4-ylamino]-benzyl}-C-phenyl-methanesulfonamide], the IC50 is < 1000 nM.

For `CS(=O)(=O)NCc1ccc(Nc2cc(-c3cccnc3)ncn2)cc1` [Example 52, N-[4-(6-Pyridin-3-yl-pyrimidin-4-ylamino)-benzyl]-methanesulfonamide], the IC50 is < 10000 nM.

For the compound `CC(C)COc1ccccc1-c1cc(Nc2ccc(CNS(C)(=O)=O)cc2)ncn1` [Example 51, N-{4-[6-(2-Isobutoxy-phenyl)-pyrimidin-4-ylamino]-benzyl}-methanesulfonamide], the IC50 is < 1000 nM.

As for `CS(=O)(=O)NCc1cccc(Nc2cc(-c3ccccc3COc3ccc(OC(F)(F)F)cc3)ncn2)c1` [Example 30, N-(3-{6-[2-(4-Trifluoromethoxy-phenoxymethyl)-phenyl]-pyrimidin-4-ylamino}-benzyl)-methanesulfonamide], the IC50 was > 10000 nM.

For the compound `CC(C)Oc1cc(F)ccc1-c1cc(Nc2cccc(CNS(C)(=O)=O)c2)ncn1` [Example 14, N-{3-[6-(4-Fluoro-2-isopropoxy-phenyl)-pyrimidin-4-ylamino]-benzyl}-methanesulfonamide], the IC50 was < 1000 nM.

As to `Clc1cc(Nc2cccc(CNc3nc4ccccc4[nH]3)c2)ncn1` [Example 59, (1H-Benzoimidazol-2-yl)-[3-(6-chloro-pyrimidin-4-ylamino)-benzyl]-amine], the IC50 was > 10000 nM.

For the compound `CS(=O)(=O)NCc1cccc(Nc2cc(-c3ccccc3C(F)(F)F)ncn2)c1` [Example 18, N-{3-[6-(2-Trifluoromethyl-phenyl)-pyrimidin-4-ylamino]-benzyl}-methanesulfonamide], the IC50 is > 10000 nM.

Take `CS(=O)(=O)NCc1cccc(Nc2cc(-c3cccc(C(N)=O)c3)ncn2)c1` [Example 20, 3-{6-[3-(Methanesulfonylamino-methyl)-phenylamino]-pyrimidin-4-yl}-benzamide]: the IC50 was < 10000 nM.

`COc1ccc(COc2ccccc2-c2cc(Nc3ccc(CNS(C)(=O)=O)cc3)ncn2)cc1` [Example 50, N-(4-{6-[2-(4-Methoxy-benzyloxy)-phenyl]-pyrimidin-4-ylamino}-benzyl)-methanesulfonamide]: the IC50 is < 1000 nM.

In the case of `CC(C)Oc1cc(F)ccc1-c1cc(Nc2ccc(Cn3cnc4ccccc43)cc2)ncn1` [Example 88, (4-Benzoimidazol-1-ylmethyl-phenyl)-[6-(4-fluoro-2-isopropoxy-phenyl)-pyrimidin-4-yl]-amine], the IC50 is < 1000 nM.

For `COc1ccccc1-c1cc(Nc2cccc(CNS(C)(=O)=O)c2)ncn1` [Example 6, N-{3-[6-(2-Methoxy-phenyl)-pyrimidin-4-ylamino]-benzyl}-methanesulfonamide], the IC50 is < 100 nM.

In the case of `CS(=O)(=O)NCc1cccc(Nc2cc(-c3ccccc3OCc3ccccc3)ncn2)c1` [Example 2, N-{3-[6-(2-Benzyloxy-phenyl)-pyrimidin-4-ylamino]-benzyl}-methanesulfonamide], the IC50 is < 1000 nM.

As to `COc1ccccc1-c1cc(Nc2cccc(Cn3c(CN4CCOCC4)nc4ccccc43)c2)ncn1` [Example 93, [6-(2-Methoxy-phenyl)-pyrimidin-4-yl]-[3-(2-morpholin-4-ylmethyl-benzoimidazol-1-ylmethyl)-phenyl]-amine], the IC50 was < 10000 nM.

On to `COc1ccccc1-c1cc(Nc2cccc(CNC(=O)Nc3ccc(F)cc3)c2)ncn1` [Example 85, 1-(4-Fluoro-phenyl)-3-{3-[6-(2-methoxy-phenyl)-pyrimidin-4-ylamino]-benzyl}-urea], for which the IC50 is < 10000 nM.

With `CCCS(=O)(=O)NCc1cccc(Nc2cc(-c3ccccc3OC)ncn2)c1` [Example 71, Propane-1-sulfonic acid 3-[6-(2-methoxy-phenyl)-pyrimidin-4-ylamino]-benzylamide], the IC50 was < 100 nM.

For `COc1ccccc1-c1cc(Nc2ccc(Cn3cnc4ccccc43)cc2)ncn1` [Example 87, (4-Benzoimidazol-1-ylmethyl-phenyl)-[6-(2-methoxy-phenyl)-pyrimidin-4-yl]-amine], the IC50 was < 1000 nM.

For the compound `CS(=O)(=O)NCc1ccc(Nc2cc(-c3ccccc3C(F)(F)F)ncn2)cc1` [Example 43, N-{4-[6-(2-Trifluoromethyl-phenyl)-pyrimidin-4-ylamino]-benzyl}-methanesulfonamide], the IC50 is > 10000 nM.

In the case of `COc1cccc(-c2cc(Nc3ccc(CNS(C)(=O)=O)cc3)ncn2)c1` [Example 47, N-{4-[6-(3-Methoxy-phenyl)-pyrimidin-4-ylamino]-benzyl}-methanesulfonamide], the IC50 was < 10000 nM.

As for `CCOc1ccccc1-c1cc(Nc2ccc(CNS(C)(=O)=O)cc2)ncn1` [Example 37, N-{4-[6-(2-Ethoxy-phenyl)-pyrimidin-4-ylamino]-benzyl}-methanesulfonamide], the IC50 is < 100 nM.
